In PubChem BioAssay AID250 (DTP/NCI, 2004):
Values joined by “and” are separate entries in the source; they are usually repeats but may differ in a detail not shown here. Equal values may be shown once. Toxic doses and inconclusive results are not listed.

Test system: BDF1 mice, L1210 leukemia sc, survival T/C
Test: NCI In Vivo Anticancer Drug Screen. Data for tumor model L1210 Leukemia (subcutaneous) in B6D2F1 (BDF1) mice
Settings: endpoint: median survival time, higher = longer survival
In short: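 Expressed as T/C: measurement in compound-treated, tumor-bearing mice relative to vehicle-treated control mice, based on survival or tumor size.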

For `CS(C)=O`, the T/C (dose: 1.5 grams/kg/injection, schedule: Q01DX009 (ip), vehicle: saline) was 103 % of control, the T/C (dose: 3.0 grams/kg/injection, schedule: Q01DX009 (ip), vehicle: saline) was 97 % of control and the T/C (dose: 6.0 grams/kg/injection, schedule: Q01DX009 (ip), vehicle: saline) was 103 % of control.

With `Nc1ncn(C2OC(CO)C(O)C2O)c(=O)n1` (centres undefined) the T/C (dose: 0.5 mg/kg/injection, schedule: Q01DX009 (sc), vehicle: saline) was 105 % of control, the T/C (dose: 0.5 mg/kg/injection, schedule: Q03HX024 (sc), vehicle: saline) was 104 % of control and the T/C (dose: 0.75 mg/kg/injection, schedule: Q01DX009 (ip), vehicle: saline) was 155 % of control. The T/C (dose: 0.75 mg/kg/injection, schedule: Q01DX009 (sc), vehicle: saline) was 155 % of control, the T/C (dose: 1.0 mg/kg/injection, schedule: Q01DX009 (sc), vehicle: saline) was 110 % of control and 111 % of control (2×) and the T/C (dose: 1.0 mg/kg/injection, schedule: Q03HX024 (sc), vehicle: saline) was 118 % of control. The T/C (dose: 1.0 mg/kg/injection, schedule: Q05DX009 (sc), vehicle: saline) was 116 % of control and 119 % of control, the T/C (dose: 1.5 mg/kg/injection, schedule: Q01DX009 (ip), vehicle: saline) was 205 % of control and the T/C (dose: 1.5 mg/kg/injection, schedule: Q01DX009 (sc), vehicle: saline) was 200 % of control. For the same compound, the T/C (dose: 2.0 mg/kg/injection, schedule: Q01DX009 (sc), vehicle: saline) was 120 % of control and 121 % of control and 122 % of control, the T/C (dose: 2.0 mg/kg/injection, schedule: Q04DX003 (sc), vehicle: saline) was 100 % of control and the T/C (dose: 2.0 mg/kg/injection, schedule: Q05DX009 (sc), vehicle: saline) was 122 % of control and 123 % of control. The T/C (dose: 3.0 mg/kg/injection, schedule: Q01DX009 (sc), vehicle: saline) was 172 % of control, the T/C (dose: 3.0 mg/kg/injection, schedule: Q04DX003 (sc), vehicle: saline) was 122 % of control and the T/C (dose: 4.0 mg/kg/injection, schedule: Q01DX001 (sc), vehicle: saline) was 100 % of control. For the same compound, the T/C (dose: 4.0 mg/kg/injection, schedule: Q03HX024 (sc), vehicle: saline) was 151 % of control, the T/C (dose: 4.0 mg/kg/injection, schedule: Q04DX003 (sc), vehicle: saline) was 100 % of control and the T/C (dose: 6.0 mg/kg/injection, schedule: Q01DX009 (ip), vehicle: saline) was 88 % of control. The T/C (dose: 6.0 mg/kg/injection, schedule: Q01DX009 (sc), vehicle: saline) was 100 % of control, the T/C (dose: 6.0 mg/kg/injection, schedule: Q04DX003 (ip), vehicle: saline) was 200 % of control and the T/C (dose: 6.0 mg/kg/injection, schedule: Q04DX003 (sc), vehicle: saline) was 183 % of control. For the same compound, the T/C (dose: 8.0 mg/kg/injection, schedule: Q01DX001 (sc), vehicle: saline) was 105 % of control, the T/C (dose: 8.0 mg/kg/injection, schedule: Q01DX009 (sc), vehicle: saline) was 105 % of control and the T/C (dose: 8.0 mg/kg/injection, schedule: Q03HX024 (sc), vehicle: saline) was 110 % of control. For the same compound, the T/C (dose: 8.0 mg/kg/injection, schedule: Q04DX003 (sc), vehicle: saline) was 110 % of control, the T/C (dose: 12.0 mg/kg/injection, schedule: Q01DX001 (sc), vehicle: saline) was 155 % of control and the T/C (dose: 12.0 mg/kg/injection, schedule: Q04DX003 (ip), vehicle: saline) was 150 % of control. For the same compound, the T/C (dose: 12.0 mg/kg/injection, schedule: Q04DX003 (sc), vehicle: saline) was 150 % of control, the T/C (dose: 16.0 mg/kg/injection, schedule: Q01DX001 (sc), vehicle: saline) was 120 % of control and the T/C (dose: 16.0 mg/kg/injection, schedule: Q01DX009 (sc), vehicle: saline) was 108 % of control and 111 % of control. For the same compound, the T/C (dose: 16.0 mg/kg/injection, schedule: Q04DX003 (sc), vehicle: saline) was 120 % of control, the T/C (dose: 16.0 mg/kg/injection, schedule: Q05DX009 (sc), vehicle: saline) was 111 % of control and 113 % of control and the T/C (dose: 24.0 mg/kg/injection, schedule: Q01DX001 (ip), vehicle: saline) was 155 % of control. For the same compound, the T/C (dose: 24.0 mg/kg/injection, schedule: Q01DX001 (sc), vehicle: saline) was 166 % of control, the T/C (dose: 24.0 mg/kg/injection, schedule: Q04DX003 (sc), vehicle: saline) was 105 % of control and the T/C (dose: 48.0 mg/kg/injection, schedule: Q01DX001 (ip), vehicle: saline) was 166 % of control. The T/C (dose: 48.0 mg/kg/injection, schedule: Q01DX001 (sc), vehicle: saline) was 166 % of control, the T/C (dose: 48.0 mg/kg/injection, schedule: Q04DX003 (ip), vehicle: saline) was 100 % of control and the T/C (dose: 48.0 mg/kg/injection, schedule: Q04DX003 (sc), vehicle: saline) was 122 % of control.

With `CO[C@H](C(=O)[C@@H](O)[C@@H](C)O)[C@@H]1Cc2cc3cc(OC4CC(OC5CC(O)C(O)C(C)O5)C(O)C(C)O4)c(C)c(O)c3c(O)c2C(=O)[C@H]1OC1CC(OC2CC(OC3CC(C)(O)C(O)C(C)O3)C(O)C(C)O2)C(O)C(C)O1` (some centres undefined) the T/C (dose: 0.12 mg/kg/injection, schedule: Q01DX009 (ip), vehicle: water) was 105 % of control, the T/C (dose: 0.12 mg/kg/injection, schedule: Q01DX009 (sc), vehicle: water) was 103 % of control and the T/C (dose: 0.25 mg/kg/injection, schedule: Q01DX009 (ip), vehicle: water) was 94 % of control. The T/C (dose: 0.25 mg/kg/injection, schedule: Q01DX009 (sc), vehicle: water) was 100 % of control and 103 % of control, the T/C (dose: 0.5 mg/kg/injection, schedule: Q01DX009 (sc), vehicle: water) was 95 % of control and 110 % of control and the T/C (dose: 1.0 mg/kg/injection, schedule: Q01DX009 (ip), vehicle: water) was 93 % of control. For the same compound, the T/C (dose: 1.0 mg/kg/injection, schedule: Q01DX009 (sc), vehicle: water) was 101 % of control and the T/C (dose: 2.0 mg/kg/injection, schedule: Q01DX009 (sc), vehicle: water) was 96 % of control.

In the case of `O=c1[nH]c(=O)n(C2CC(O)C(CO)O2)cc1Br` (centres undefined), the T/C (dose: 65.0 mg/kg/injection, schedule: Q01DX Z (sc), vehicle: saline) is reported as 111 % of control, the T/C (dose: 108.0 mg/kg/injection, schedule: Q01DX Z (sc), vehicle: saline) is reported as 111 % of control and the T/C (dose: 180.0 mg/kg/injection, schedule: Q01DX Z (sc), vehicle: saline) is reported as 111 % of control. The T/C (dose: 300.0 mg/kg/injection, schedule: Q01DX Z (sc), vehicle: saline) was 111 % of control, the T/C (dose: 500.0 mg/kg/injection, schedule: Q01DX Z (sc), vehicle: saline) was 122 % of control and the T/C (dose: 833.0 mg/kg/injection, schedule: Q01DX Z (sc), vehicle: saline) was 122 % of control.

`COc1cc([C@@H]2c3cc4c(cc3[C@@H](OC3OC5COC(C)OC5C(O)C3O)[C@H]3COC(=O)[C@H]23)OCO4)cc(OC)c1O` (some centres undefined) was tested, and the T/C (dose: 2.0 mg/kg/injection, schedule: Q01DX009 (ip), vehicle: Klucel (hydroxypropylcellulose) (HPC)) was 120 % of control, the T/C (dose: 8.0 mg/kg/injection, schedule: Q01DX009 (ip), vehicle: Klucel (hydroxypropylcellulose) (HPC)) was 160 % of control and the T/C (dose: 16.0 mg/kg/injection, schedule: Q01DX009 (ip), vehicle: Klucel (hydroxypropylcellulose) (HPC)) was 105 % of control.

With `C[n+]1c2ccccc2c(Nc2ccc(NS(=O)(=O)CCCCN=C(N)N)cc2)c2ccc(N)cc21` the T/C (dose: 1.5 mg/kg/injection, schedule: Q01DX009 (ip), vehicle: water) was 110 % of control, the T/C (dose: 3.0 mg/kg/injection, schedule: Q01DX009 (ip), vehicle: water) was 120 % of control and the T/C (dose: 6.0 mg/kg/injection, schedule: Q01DX009 (ip), vehicle: water) was 151 % of control. For the same compound, the T/C (dose: 12.0 mg/kg/injection, schedule: Q01DX009 (ip), vehicle: water) was 173 % of control.

`[I][Hg][CH2]C1COC([CH2][Hg][I])CO1` (centres undefined) was tested, and the T/C (dose: 14.0 mg/kg/injection, schedule: Q01DX Z (sc), vehicle: other) was 100 % of control, the T/C (dose: 23.0 mg/kg/injection, schedule: Q01DX Z (sc), vehicle: other) was 100 % of control and the T/C (dose: 39.0 mg/kg/injection, schedule: Q01DX Z (sc), vehicle: other) was 105 % of control. For the same compound, the T/C (dose: 65.0 mg/kg/injection, schedule: Q01DX Z (sc), vehicle: other) was 100 % of control and the T/C (dose: 108.0 mg/kg/injection, schedule: Q01DX Z (sc), vehicle: other) was 111 % of control.

`CN(N=O)C(=O)N[C@@H](C=O)[C@@H](O)[C@H](O)[C@H](O)CO` was tested, and the T/C (dose: 25.0 mg/kg/injection, schedule: Q01DX009 (sc), vehicle: other) was 123 % of control.
